Results from ChEMBL document CHEMBL1124854, “Porphyrin dimers as photosensitizers in photodynamic therapy” (1990).

Columns and labels:
Format in all cases: functional
[1] = tested on: Mus musculus; experiment: In vivo photosensitizing activity against subcutaneously implanted SMT-F tumor in DBA/2 mice at the dose of 2.1mg/Kg, day 1-2
[2] = tested on: Mus musculus; experiment: In vivo photosensitizing activity against subcutaneously implanted SMT-F tumor in DBA/2 mice at the dose of 2.1mg/Kg, day 7
[3] = tested on: Mus musculus; experiment: In vivo photosensitizing activity against subcutaneously implanted SMT-F tumor in DBA/2 mice at the dose of 4.2mg/Kg, day 1-2

Row | SMILES | Tumor response [1] | Tumor response [2] | Tumor response [3]
1 | C=CC1=C(C)c2cc3nc(ccc(CCC(=O)OC)c(C)c(NC)cc4[nH]c(cc1n2)c(C)c4C(C)OC(C)c1c(C)cc2[nH]c(cc4nc(cc5nc(cc(N)c1C)C(C(C)O)=C5C)C(C)=C4CCC(=O)OC)c(CCC(=O)OC)c2C)C(CCC(=O)OC)=C3C (centres undefined) | 100% | 100% | –
2 | CNc1cc2[nH]c(cc3nc(cc4nc(ccc(CCC(=O)OC)c1C)C(CCC(=O)OC)=C4C)C(C)=C3C(C)O)c(C)c2C(C)OC(C)c1c(C)cc2[nH]c(cc3nc(cc4nc(cc(N)c1C)C(C(C)O)=C4C)C(C)=C3CCC(=O)OC)c(CCC(=O)OC)c2C (centres undefined) | – | – | 0%
3 | CNc1cc2[nH]c(cc3nc(cc4nc(ccc(CCC(=O)OC)c1C)C(CCC(=O)OC)=C4C)C(C)=C3C(C)O)c(C)c2C(C)OC(=O)CCC1=C(C)c2cc(C)c(C(C)O)c(C)c(N)cc3nc(cc4[nH]c(cc1n2)c(CCC(=O)OC)c4C)C(C)=C3C(C)O (centres undefined) | – | – | 0%
